Measurements as given in BindingDB's records for doi:10.1016/j.bmcl.2007.06.058 (Mahidol University, 2007).

Assay: Inhibition of rhFGF2-induced cellular proliferation of HUVEC

Structure (SMILES)	IC50 [µM]
COc1cc(OC)cc(-c2ccc3c(c2)NC(=O)/C3=C\c2[nH]c(C)c(CCC(=O)O)c2C)c1 [(Z)-3-(5-((6-(3,5-dimethoxyphenyl)-2-oxoindolin-3-ylidene)methyl)-2,4-dimethyl-1H-pyrrol-3-yl)propanoic acid]	18.2
Cc1[nH]c(/C=C2\C(=O)Nc3cc(-c4ccccc4)ccc32)c(C)c1CCC(=O)O	> 50
COc1cccc(-c2ccc3c(c2)NC(=O)/C3=C\c2[nH]c(C)c(CCC(=O)O)c2C)c1 [3-(5-{[(3Z)-6-(3-methoxyphenyl)-2-oxo-2,3-dihydro-1H-indol-3-ylidene]methyl}-2,4-dimethyl-1H-pyrrol-3-yl)propanoic acid]	17.9
